In patent publication US8404696B2, “Quinazoline-2,4-dione derivative, and medical compositions for the prophylaxis and treatment of cranial nerve disease containing the same” (Shin Poong Pharmaceutical Co., Ltd., priority 2008, dated 2013):

Assays:
[1] = tested on: superoxide dismutase (SOD); test: Increase of superoxide dismutase (SOD) activity in mouse brain cells; format: cell-based; details: 100 μg/ml
Experimental: ROS inhibitory effect of compounds was represented to the dose suppressing 50% of production of reactive oxygen compared to control. […] The activity of superoxide dismutase (SOD) was measured by using a kit acquired in Sigma.

thoracic aorta of rats = test: Relaxing effect on thoracic aorta contracted by phenylephrine (organ bath); design: species or system rats of SD species; details: 67 μg/mL, phenylephrine 0.5 μM, mean n = 3
In short: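 Thoracic aortic rings (2 mm) from ether-anesthetized male SD rats (250-300 g) were mounted in Krebs buffer gassed with 95% O2/5% CO2 and equilibrated at 1.0 g basal tension for 90 min. After stable contraction with phenylephrine (0.5 μM), compounds were added and relaxation recorded.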

SH-SY5Y cells [2] = test: Inhibitory effect on H2O2-mediated cytotoxicity (MTT assay); format: cell-based, humans; details: 200 μM hydrogen peroxide, 24 hours
Experimental: SH-SY5Y cells that are oriented by nerve cell line from humans were cultured with 3×10^4 cell concentration in 96 well plate, and the sample was treated. After 30 minutes, 200 μM hydrogen peroxide was treated to induce toxicity for 24 hours. After the reaction was completed, the survival rate of cells was measured by MTT assay.

[3] = tested on: mixed culture of nerve cells-glial cells; test: Protecting effect on NMDA-induced nerve cell death (LDH release); format: cell-based, ICR mouse; details: 100 μM NMDA, LDH release after 24 hours
In short: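 Embryonic day-14 ICR mouse cortical neurons seeded on cortical glia, Ara-C-treated, then exposed at day 12–15 for 20 min to 100 μM NMDA with compound at 1 or 2 μg/mL. LDH released 24 h later measured colorimetrically as a cell-death index.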

SH-SY5Y cells [4] = test: Inhibitory effect on ZnSO4-mediated cytotoxicity (MTT assay); format: cell-based, humans; details: compound 50 μg/ml; 600 μM zinc sulfate, 24 hours
Experimental: SH-SY5Y cells were cultured with 3×10^4 cell concentration in 96 well plates, and the compound (50 μg/ml) was treated. After 30 minutes, 600 μM of zinc sulfate was treated to induce toxicity for 24 hours and survival rate of cells was measured by MTT assay.

mouse brain cells = test: Inhibitory effect on ROS production in brain cells (DCF-DA, NMDA-induced); format: cell-based; details: dose suppressing 50% of production of reactive oxygen compared to control; mouse brain cells
[5] = tested on: pentylentetrazole (PTZ)-induced convulsion; test: Anti-convulsant effect, pentylentetrazole (PTZ) test; format: in vivo; details: 10 mg/kg intraperitoneally, PTZ 80 mg/kg subcutaneously
In short: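 Compound was given intraperitoneally at 10 mg/kg before PTZ challenge. The read-outs were time to convulsion onset, time until convulsions fully disappeared, and mortality.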

Compound | Increase of SOD activity, compared to control [1] | inhibition at 67 µg/mL (thoracic aorta of rats; Rattus norvegicus, read-out: Relaxation percentage) [%] | inhibitory percentage, oxidative toxicity induced by hydroperoxide (SH-SY5Y cells [2]; 5 μg/ml) [%] | inhibitory percentage, oxidative toxicity induced by hydroperoxide (SH-SY5Y cells [2]; 50 μg/ml) [%] | Inhibitory effect of cell death by NMDA-induced excitable neurotoxicity ([3]; 1 μg/ml compound) [%] | Inhibitory effect of cell death by NMDA-induced excitable neurotoxicity ([3]; 2 μg/ml compound) [%] | inhibitory percentage, zinc-induced toxicity (SH-SY5Y cells [4]) [%] | Relaxation percentage (thoracic aorta of rats) [%] | ROS inhibitory effect ID50 (mouse brain cells) [µg/mL] | mortality rate ([5]; (animals/total), negative control 70(17/23)) | Induction percentage of convulsion ([5]; (animals/total), negative control 100(23/23)) | Initiation time of convulsion ([5]; negative control 5.0 ± 0.7) [min] | Duration of convulsion ([5]; negative control 46.7 ± 3.3) [min]
CC(=O)N(CCCCN(CCCn1c(=O)[nH]c2ccccc2c1=O)C(C)=O)CCCn1c(=O)[nH]c2ccccc2c1=O [Compound 4, N-(4-{acetyl-[3-(2,4-dioxo-1,4-dihydro-2H-quinazolin-3-yl)propyl]amino}butyl)-N-[3-(2,4-dioxo-1,4-dihydro-2H-quinazolin-3-yl)propyl]acetamide] | 0.6 ± 2.2 | 7.7 | 2.0 ± 0.4 | 18.1 ± 2.1 | 22.3 | 7.4 | – | – | – | – | – | – | –
[3-(2,4-dioxo-1,4-dihydro-2H-quinazolin-3-yl)propyl]-{4-[3-(2,4-dioxo-1,4-dihydro-2H-quinazolin-3-yl)propylamino]butyl}heptanoic amide [Compound 35] | 3.4 ± 7.9 | – | – | – | 32.5 | 35.7 | 9.1 ± 1.8 | 42.6 | 140.0 ± 18.6 | 33(2/6) % | 100(6/6) % | 5.4 ± 1.6 | 33.3 ± 7.3
